# Test results reported in patent publication US7230131B2, “Carnitine-magnesium hydroxycitrate” (Lonza AG, priority 2000, dated 2007).
# Like-named read-outs stand apart in the source and are kept apart here.
# Columns and labels:
# [1] = Hygroscopicity test: gravimetric moisture uptake on storage at 56% relative humidity, 25° C.; format: physicochemical; details: for weight gain (moisture uptake from the air): 25° C., granulated <0.8 mm, previously dried over phosphorus pentoxide, based on total sample weight, Citrate; for moisture uptake: previously dried to constant weight
# Text: In a preferred embodiment, L-carnitine, magnesium hydroxide and citric acid are mixed in stoichiometric amounts, i.e. in a molar ratio of approximately 1:1:1. The types of these substances are preferably sufficiently pure, i.e. approved for the manufacture of food products or the preparation of pharmaceuticals, as are described, for example, in the European Pharmacopoeia. Anhydrous types are expediently used. To avoid an unwanted salt loading, the pure L-carnitine is preferably added to the mixture as neutral […] salt. Compared with previous methods of preparation, the hygroscopicity of the complex salt L-carnitine-magnesium citrate prepared in this way is reduced further. For example, the moisture uptake, determined by gravimetry in the way familiar to the skilled worker, of solid carnitine-Mg citrate prepared by the method of the invention and previously dried to constant weight under oil-pump vacuum or over phosphorus pentoxide is not more than 7% by weight after 48 h at 56% relative humidity (rH). This figure is not exceeded even after storage for 330 h. Based on the amount of carnitine or carnitine derivative present in the mixture, referred to within the scope of the invention as carnitine content based on free base, this corresponds to a moisture uptake of not more than 40% by weight. It is preferred for at least 80% of the carnitine-Mg citrate, based on the carnitine content in the mixture, to be in the form of complex salt in the mixture of the invention.
# The product mixtures from example 1 and 2 granulated to a particle size of <0.8 mm using a FREEWIT screening granulator are stored at a relative humidity of 56% at 25° C. under constant test conditions for the stated times. The sample was previously dried to constant weight over phosphorus pentoxide. The moisture uptake from the air is determined by gravimetry. The weight gain is stated in percent based on the total weight of the sample.
# [2] = relative humidity 56%, storage for 1 week; cited from earlier work
# citrate lyase = molecular target: T1, citrate lyase (Homo sapiens, UniProt P53396); details: cited from earlier work
# T1 sequence (P53396 1-1101): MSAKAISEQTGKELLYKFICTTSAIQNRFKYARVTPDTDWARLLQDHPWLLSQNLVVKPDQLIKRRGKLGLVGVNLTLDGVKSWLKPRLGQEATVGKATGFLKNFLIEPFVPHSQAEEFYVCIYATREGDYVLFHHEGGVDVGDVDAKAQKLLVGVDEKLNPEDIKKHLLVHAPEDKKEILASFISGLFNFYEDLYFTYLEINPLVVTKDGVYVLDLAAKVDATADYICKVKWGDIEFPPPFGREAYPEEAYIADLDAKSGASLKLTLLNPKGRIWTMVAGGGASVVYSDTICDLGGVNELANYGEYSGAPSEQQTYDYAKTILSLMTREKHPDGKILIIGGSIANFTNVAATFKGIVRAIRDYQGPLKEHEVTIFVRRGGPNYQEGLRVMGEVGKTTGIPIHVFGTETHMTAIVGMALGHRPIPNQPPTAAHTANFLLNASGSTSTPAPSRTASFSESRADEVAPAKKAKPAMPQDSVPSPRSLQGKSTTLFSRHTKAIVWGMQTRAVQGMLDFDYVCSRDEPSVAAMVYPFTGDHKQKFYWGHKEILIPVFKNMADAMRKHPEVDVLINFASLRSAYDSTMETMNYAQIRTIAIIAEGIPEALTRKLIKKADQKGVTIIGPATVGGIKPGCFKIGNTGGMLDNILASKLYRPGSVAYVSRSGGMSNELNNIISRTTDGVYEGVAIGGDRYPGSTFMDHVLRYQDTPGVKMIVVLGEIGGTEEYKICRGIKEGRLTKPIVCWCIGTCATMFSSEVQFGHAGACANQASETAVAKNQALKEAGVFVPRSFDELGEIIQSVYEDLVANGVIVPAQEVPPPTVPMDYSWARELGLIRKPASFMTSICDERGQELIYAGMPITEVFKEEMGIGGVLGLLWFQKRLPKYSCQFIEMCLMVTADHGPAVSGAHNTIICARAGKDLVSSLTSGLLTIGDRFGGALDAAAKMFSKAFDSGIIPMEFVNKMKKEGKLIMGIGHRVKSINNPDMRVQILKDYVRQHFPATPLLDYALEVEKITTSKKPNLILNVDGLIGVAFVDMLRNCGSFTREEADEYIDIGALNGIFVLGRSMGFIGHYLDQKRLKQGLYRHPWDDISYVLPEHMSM
# [3] = Weight gain of previously dried mixture under standard conditions; format: physicochemical; details: after 24 h under standard conditions
# Description: The weight gain of the mixture of the invention which had previously been dried was, after 24 h under standard conditions, 0.82% by weight. At a relative humidity of 56%, the water uptake of the mixture determined by gravimetry was ≦10% by weight after 30 h, corresponding to about 30% by weight based on the carnitine content of the mixture.
# [4] = Storage stability in relation to rearrangement of HCA to the lactone, standard test conditions; format: physicochemical; details: compared with known HCA salts; standard test conditions customary in the pharmaceutical sector
# Text: The present invention further relates to carnitine-magnesium hydroxycitrate. This is a salt of low hygroscopicity and can be prepared by the present method through mixing magnesium hydroxide, hydroxycitric acid and carnitine or alkanoyl carnitine in the molar ratio 1:1:1. It is a neutral salt in the stoichiometric composition, in relation to the charge distribution and the ionizable functional groups. […] This involves a synergistic effect of the mixture in the form of a complex salt. Without wishing to be bound to the theory, it is possible that this effect is brought about by a better bioavailability of the complex salt. HCA is prone to spontaneous lactonization in aqueous solution and in the gastrointestinal tract. The complexation with Mg before preparation of a solution might have a stabilizing effect in relation to the unwanted rearrangement of the lactone and thus bring about much greater activity in cooperation with carnitine. […] It is also possible that a previously unrecognized stimulating effect in particular of magnesium, in the sense of that stated above concerning the mechanism of action of carnitine and hydroxycitrate, is involved. Allosterically regulated enzymes are often regulated by various factors such as, for example, also Mg cations. Magnesium is moreover an important cofactor for various enzymes or constituent of the holo enzyme. […]
# [5] = storage time 4 h, 56% relative humidity
# [6] = storage time 8 h, 56% relative humidity
# [7] = storage time 24 h, 56% relative humidity
# [8] = storage time 36 h, 56% relative humidity
# [9] = storage time 48 h, 56% relative humidity
# [10] = storage time 336 h, 56% relative humidity
Compound,"weight gain (moisture uptake from the air) [1, 5] [% by weight]","weight gain (moisture uptake from the air) [1, 6] [% by weight]","weight gain (moisture uptake from the air) [1, 7] [% by weight]","weight gain (moisture uptake from the air) [1, 8] [% by weight]","weight gain (moisture uptake from the air) [1, 9] [% by weight]","weight gain (moisture uptake from the air) [1, 10] [% by weight]",other results
"C[N+](C)(C)C[C@H](O)CC(=O)[O-].O=C([O-])CC(O)(CC(=O)[O-])C(=O)[O-].O=C([O-])CC(O)(CC(=O)[O-])C(=O)[O-].[Mg+2].[Mg+2].[Mg+2] [example 1, L-Carnitine-Magnesium Citrate]",2.0,2.2,4.6,4.4,5.2,5.1,
"C[N+](C)(C)C[C@H](O)CC(=O)[O-].O=C([O-])CC(O)(CC(=O)[O-])C(=O)[O-].O=C([O-])CC(O)(CC(=O)[O-])C(=O)[O-].[Mg+2].[Mg+2].[Mg+2] [example 2, L-Carnitine-Magnesium Citrate]",2.7,3.0,5.4,5.5,6.4,6.5,
"C[N+](C)(C)C[C@H](O)CC(=O)[O-].O=C([O-])CC(O)(CC(=O)[O-])C(=O)[O-].O=C([O-])CC(O)(CC(=O)[O-])C(=O)[O-].[Mg+2].[Mg+2].[Mg+2] [carnitine-Mg citrate, L-carnitine-magnesium citrate]",,,,,,,"moisture uptake based on carnitine content (free base) ([1]; 56% relative humidity, based on amount of carnitine in the mixture): not more than 40 % by weight; moisture uptake ([1]; after 48 h at 56% relative humidity): not more than 7 % by weight; moisture uptake ([1]; after storage for 330 h at 56% relative humidity): not more than 7 % by weight"
"C[N+](C)(C)C[C@H](O)CC(=O)[O-].O=C([O-])CC(O)(CC(=O)[O-])C(=O)[O-].O=C([O-])CC(O)(CC(=O)[O-])C(=O)[O-].[Mg+2].[Mg+2].[Mg+2] [reference, L-carnitine-magnesium citrate, reference compound]",5.1,9.1,18.1,17.6,20.4,15.6,water uptake [2]: 21 % by weight
"O=C(O)CC(O)(C(=O)O)C(O)C(=O)O (stereo not shown) [HCA, Hydroxycitric acid]",,,,,,,affinity of the enzyme relative to natural substrate citric acid (citrate lyase; fold higher than for citric acid): more than 100 times
O=C1C[C@@](O)(C(=O)O)[C@@H](C(=O)O)O1 [lactone derivative],,,,,,,affinity of the enzyme compared with HCA (citrate lyase; by comparison with HCA): clear lower affinity
L-Carnitine-Magnesium (−)-Hydroxycitrate [Example 4],,,,,,,"weight gain [3]: 0.82 % by weight; water uptake based on the carnitine content of the mixture ([1]; after 30 h at relative humidity 56%): about 30 % by weight; water uptake ([1]; after 30 h at relative humidity 56%, gravimetry): ≤ 10 % by weight; storage stability in relation to rearrangement of HCA to the lactone [4]: improved storage stability"
